The values below are quoted from earlier work in article PMC8178945 (Computational and Structural Biotechnology Journal, 2021).

The data set deals with 3CL^Pro. The following applies: read-out: KD from isothermal titration calorimetry; previously obtained. (In ITC the heat of successive injections is recorded.)

`O=c1cc(-c2ccccc2)oc2cc(O)c(O)c(O)c12` [baicalein]: the Kd is 4.03 µM.
